Test results as given in US20020115212A1, “Enchanced PKR expression and cytokine production” (priority 2000, published 2002).

Experiments:
[1] = system: IFN-alpha production in Namalwa PKR++41.027 and WT Namalwa cells; experiment: IFN-alpha production (ELISA) after PMA priming and poly I:C induction; format: cell-based, human; details: 20 nM PMA 24 hr, 200 μg/mL poly I:C plus 10 μg/mL DEAE Dextran, 72 hr
Procedure: Cells from individual subclones of Namalwa PKR++41.027 cells and WT Namalwa cells were pretreated with 20 nM phorbol myristate acetate at a cell density 5.0×10^5 cells/ml, in 6 well plates for 24 hrs followed by treatment with 500 HAU/ml Sendai virus or 200 μg/mL poly I:C plus 10 μg/mL DEAE Dextran for an additional 72 hr to induce IFN expression. Culture supernatants from the Sendai virus-treated cells were removed at 24 hr and 48 hr post-induction and supernatants from the Poly I:C treated cells were removed at 72 hr. IFN-alpha production was measured in these cell culture supernates using ELISA (Human Interferon Alpha Multi-Species ELISA Kit obtained from PBL).
FIG. 5 illustrates IFN-alpha production was enhanced following both Sendai virus and PolyI:C induction in Namalwa PKR++41.027 cells relative to IFN-alpha production by wild type Namalwa cells as shown in FIG. 5.

[2] = system: IFN-alpha production in Namalwa PKR++41.027 and WT Namalwa cells; experiment: IFN-alpha production (ELISA) after PMA priming and Sendai virus or poly I:C induction in the presence of 2-aminopurine; format: cell-based, human; details: 5 mM 2-aminopurine, 20 nM PMA 24 hr, Namalwa PKR++41.027 and WT cells
Procedure: Parallel experiments were performed on duplicate cultures of the individual subclones of Namalwa PKR++41.027 cells and WT Namalwa cells. These cultures were also pretreated with 20 nM phorbol myristate acetate at a cell density 5.0×10^5 cells/ml, in 6 well plates for 24 hr followed by treatment with 500 HAU/ml Sendai virus or poly I:C (200 μg/ml) plus 10 μg/ml DEAE Dextran. In addition these cultures were also treated with the PKR inhibitor 5 mM 2-aminopurine (2AP; obtained from Aldrich Chemical Company). Culture supernatants from the Sendai virus-induced cells were removed at 24 hr, post-induction and culture supernatants from the Poly I:C-induced cells were removed at 72 hr and evaluated for IFN alpha production using ELISA (PBL Catalogue No. 41105 Human Interferon Alpha Multi-Species ELISA Kit).

[3] = system: proinflammatory cytokines; experiment: Induction of other proinflammatory cytokines by virus or poly I:C in the presence of 2-aminopurine; format: cell-based; details: results not shown
PKR = PKR (Homo sapiens, UniProt P19525); details: stated as known; cited from earlier work
Chain of PKR (P19525 whole entry): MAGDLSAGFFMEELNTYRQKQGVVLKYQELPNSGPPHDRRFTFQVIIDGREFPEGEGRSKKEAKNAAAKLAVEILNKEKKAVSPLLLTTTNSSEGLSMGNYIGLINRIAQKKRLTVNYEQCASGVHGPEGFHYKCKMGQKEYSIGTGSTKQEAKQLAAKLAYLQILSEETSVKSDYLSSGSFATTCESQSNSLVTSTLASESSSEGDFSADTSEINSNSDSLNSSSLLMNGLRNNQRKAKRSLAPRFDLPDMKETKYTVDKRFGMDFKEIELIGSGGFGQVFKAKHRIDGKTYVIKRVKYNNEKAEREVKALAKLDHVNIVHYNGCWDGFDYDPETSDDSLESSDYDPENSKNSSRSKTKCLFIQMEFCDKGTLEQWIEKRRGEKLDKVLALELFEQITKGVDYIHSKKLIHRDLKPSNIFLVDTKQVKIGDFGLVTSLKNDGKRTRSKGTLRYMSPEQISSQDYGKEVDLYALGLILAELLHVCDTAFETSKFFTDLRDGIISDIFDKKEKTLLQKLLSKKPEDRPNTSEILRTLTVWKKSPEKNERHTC

Compound | IFN-alpha induction in Namalwa PKR++41.027 cells [1] | IFN-alpha induction in parental wild type Namalwa cells [1] | IFN-alpha production following Sendai virus induction ([2]; 500 HAU/ml Sendai virus, supernatant at 24 hr) | IFN-alpha production following poly I:C induction ([2]; poly I:C 200 μg/ml plus 10 μg/ml DEAE Dextran, supernatant at 72 hr) | induction of other proinflammatory cytokines by virus or poly I:C [3] | PKR kinase activity (PKR)
poly I:C | capable of inducing IFN | absence of detectable IFN-alpha induction | – | – | – | –
Nc1ncc2[nH]cnc2n1 [2-aminopurine] | – | – | decreased | decreased | inhibits | known inhibitor
